Data taken from patent US20220339135A1, “COMPOSITIONS AND METHODS FOR MODULATING AN INFLAMMATORY RESPONSE” (Enzychem Lifesciences Corporation, priority 2019, published 2022).

Experiments:
[1] = system: intracellular ROS in Raw264.7 cells; experiment: LPS-induced intracellular ROS production (CM-H2DCFDA); type: cell-based; conditions: LPS/PLAG treatment
Protocol: Raw264.7 cells were divided into two groups: 1) LPS treated group and 2) LPS/PLAG treated group. For LPS treated group, cells were stimulated with LPS (100 ng/ml) for 0, 15, 30, 45, 60, 75, 90, 105, 120 minutes. For LPS/PLAG treatment, cells were pre-incubated with PLAG (100 ng/ml) for 1 hour and then stimulated with LPS (100 ng/ml) for 0, 15, 30, 45, 60, 75, 90, 105, 120 minutes. To detect intracellular ROS, cells were treated with […]CM-H2DCFDA (Invitrogen, Carlsbad, Calif., USA) for 30 minutes before LPS treatment for LPS treated group and before PLAG treatment for LPS/PLAG treated group. For confocal microscopy analysis, cells were washed with PBS and mounted in DAPI-containing fluorescence microscopy mounting medium (Invitrogen). Samples were analyzed with a laser scanning confocal microscope (Carl Zeiss, Oberkochen, Germany).
Raw264.7 cells were divided into two groups: 1) LPS treated group and 2) LPS/PLAG treated group. For the LPS treated group, cells were treated with 100 μg/ml of DMSO (as solvent control) for 1 hour and treated with LPS (100 ng/ml) for 15, 30, 60, and 120 minutes. For LPS/PLAG treated group, cells were treated with PLAG (100 μg/ml) for 1 hour and treated with LPS (100 ng/ml) for 15, 30, 60, and 120 minutes. […] These were analyzed by confocal microscopy. […]

[2] = system: MIP-2 and IFN-β in LPS treated macrophage cells; experiment: MIP-2 and IFN-β in LPS treated macrophage cells; type: cell-based
[3] = system: HMGB1, S100A8, S100A9, LDH in supernatant of THP-1 cells; experiment: MSU-induced DAMP and LDH release; type: cell-based, human; conditions: PLAG 100 μg/ml, MSU 400 μg/ml
Protocol: THP-1 cells were divided into two groups: 1) MSU treated group and 2) MSU/PLAG treated group. For MSU treated group, THP-1 cells were stimulated with monosodium urate (MSU) crystal (400 μg/ml) for 0, 15, 30, 60 minutes. For MSU/PLAG treated group, THP-1 cells were pre-incubated with PLAG (100 μg/ml) for 1 hour and then stimulated with monosodium urate (MSU) crystal (400 μg/ml) for 0, 15, 30, 60 minutes. Then, cells were centrifuged, and the supernatant was harvested. Add 50 μL 5×SDS sample buffer to 200 μL supernatant of THP-1 cells. Proteins from each sample were separated by sodium dodecyl sulfate (SDS)-polyacrylamide gel electrophoresis on 8% polyacrylamide gels and the proteins were blotted onto a PVDF membrane (Millipore Corporation, Germany). The membrane was blocked with 5% non-fat dried milk (BD bioscience) in PBS containing 0.05% Tween-20 (Calbiochem) for 1 hour. The membrane was incubated with anti-high mobility group box 1 (HMGB1) (abcam), anti-S100A9 (abcam) at 4° C. overnight. After washing with PBS containing 0.05% Tween-20, the membrane was stained with goat anti-rabbit IgG peroxidase (ENZO). Target proteins were detected with Immobilon Western Chemiluminescent HRP Substrate (Millipore Corporation). Lactate dehydrogenase (LDH) of Supernatant was measured using the LDH assay kit.

[4] = system: RIPK1, RIPK3, MLKL in THP-1 cells; experiment: MSU-induced phosphorylation of RIPK1, RIPK3, MLKL, western blot; type: cell-based, human
Protocol: (A) THP-1 cells were pre-incubated with PLAG (100 μg/mL) for an hour and then stimulated with MSU crystal (400 μg/mL). After 0, 7, 15, 30, 60 minutes, cells were harvested. (B) THP-1 cells were pre-incubated with PLAG (1, 10, 100 μg/mL) for 1 hour and then stimulated with MSU crystal (400 μg/mL). After 1 h, cells were harvested. THP-1 cells were lysis with 1×RIPA lysis buffer containing the protease inhibitor (Roche, Basel, Switzerland) and phosphatase inhibitor (Thermo Scientific, MA, USA) on ice for 30 min. The cell lysates were clarified by centrifugation (13,000 rpm, 4° C., 30 min), and the protein quantity from each sample was examined by Bradford assay (Bio-Rad). Proteins from each sample were separated by sodium dodecyl sulfate-polyacrylamide gel electrophoresis on 12% polyacrylamide gels and the proteins were blotted onto a PVDF membrane (Millipore Corporation, Germany). The membrane was blocked with 5% non-fat dried milk (BD bioscience) in PBS containing 0.05% Tween-20 (Calbiochem) for 1 hour. The membrane was incubated with anti-phospho-RIPK3 (abcam), RIPK3 (novusbio), p-MLKL (abcam), MLKL (Sigma), p-RIP (Cell Signaling Technology), RIPK1 (R&D System) and β-actin (Cell Signaling Technology) at 4° C. overnight. […] Target proteins were detected with Immobilon Western Chemiluminescent HRP Substrate (Millipore Corporation).

[5] = system: NET formation of neutrophil, bone marrow-derived cells; experiment: NETosis of PAK-introduced bone marrow-derived cells; type: cell-based; conditions: PAK/PLAG vs PAK
Protocol: 2 hours after PAK infection, bone marrow-derived cells were harvested and detected extracellular DNA-elastase complex by using ELISA and visualized by using confocal microscopy (×400) or scanning electron microscope (SEM) (×8000). […] cells were washed with PBS and mounted in DAPI-containing fluorescence microscopy mounting medium (Invitrogen). Samples were analyzed with a laser scanning confocal microscope (Carl Zeiss, Oberkochen, Germany).

[6] = system: radiation-induced lung injury; experiment: Radiation-induced lung injury in mice; type: in vivo
Protocol: Balb/c mice were grouped into four groups: 1) control group, 2) radiation group, 3) radiation+EC-18 50 mg/kg of PLAG, and 4) radiation+EC-18 250 mg/kg of PLAG. Lung was extracted at day 3 after 6.11Gy of TBI by γ-ray (FIG. 37A). EC-18 was treated daily. Tissue was fixed with formaldehyde, and H&E staining was carried out.

[7] = system: skin erythema injury; experiment: Radiation-induced skin erythema in mice; type: in vivo; conditions: 8Gy TBI, PLAG 250 mg/kg daily 17 days
Protocol: 9 weeks Balb/c mice were divided into two groups: 1) radiated group (8Gy of TBI by γ-ray) and 2) PLAG (250 mg/kg of PLAG daily for 17 days) administrated group with radiation (8Gy of TBI) (FIG. 38A).

With CCCCC/C=C\C/C=C\CCCCCCCC(=O)OC(COC(C)=O)COC(=O)CCCCCCCCCCCCCCC (racemic) [PLAG, 1-palmitoyl-2-linoleoyl-3-acetylglycerol] the ROS production initiated [1] was 15 min, the “return to homeostatic levels of intracellular ROS” value [1] was 60 min and the “modulation of chemokine MIP-2 in silenced cell” value ([2]; LPL or GPIHBP1 silenced cell) was “not capable of modulating”. The “chemokine MIP-2 and cytokine IFN-β” value ([2]; LPS treated macrophage cells) was “effectively down-regulates”, the “release of MSU crystal-induced HMGB1, S100A8, S100A9 and LDH to the supernatant” value [3] was “modulated the release” and the “MSU-induced phosphorylation of RIPK3 and MLKL” value ([4]; PLAG 100 μg/mL, time course) was “accelerated”. The “MSU-induced phosphorylation of RIPK1 and RIPK3” value ([4]; PLAG 1, 10, 100 μg/mL, dose-dependent) was “modulated”, the “NET formation of neutrophil” value [5] was “accelerated” and the pulmonary capillary leakage ([6]; 6.11Gy TBI, day 3, dose-dependently) was “less pulmonary capillary leakage”. For the same compound, the “leakage erythrocyte at the interstitial tissue” value ([6]; PLAG 50mpk and 250mpk) was “not observed” and the “erythema on mouse foot and tail” value [7] was “significantly weak or no erythema”.
